{
  "source": "patent US20260232767A1",
  "about": "“INTERLEUKIN-23 RECEPTOR ANTAGONIST PEPTIDES FOR USE IN THE TREATMENT OF PSORIASIS” (Janssen Pharmaceutica NV, priority 2023, published 2026)",
  "key": {"[1]": {"test_system": "subjects with moderate-to-severe plaque psoriasis", "test": "Safety, adverse events, Example 1", "conditions": "16-week study", "experimental": "Adverse events were reported and followed by the investigator. Any clinically relevant changes occurring during the study were recorded. Any clinically significant abnormalities persisting at the end of the study/early withdrawal were followed by the investigator until resolution or until a clinically stable condition was reached if possible. The evaluations of safety and tolerability include: physical examinations, vital signs, electrocardiograms, clinical safety laboratory assessments, review of concomitant medication, pregnancy testing, suicidal ideation evaluation via the Columbia—Suicide Severity Rating Scale, and tuberculosis evaluation.\nSafety was assessed among all randomized and treated participants who received at least 1 dose of study agent (partial or complete) according to the assigned treatment received during the study. This is also referred to as the safety analysis set."}, "IL-22": {"test_system": "IL-22", "test": "Serum IL-22 immunoassay", "format": "in vivo, human", "conditions": "all treatment groups relative to placebo", "description": "To evaluate psoriasis relevant systemic biomarkers (Beta-defensin 2 (BD-2), IL-17A, IL-17F, and IL-22), protein concentrations were measured in serum using validated immunoassays. The IL-17A (Catalog #03-0159-00) and IL-17F (Catalog #03-0164-00) assays used are commercially available SMC™-based high sensitivity immunoassays produced by the EMD Millipore Corporation. The manufacturer's protocols were followed and analyzed on the Erenna® instrument platform except for the use of 11 μL Elution Buffer B. While the IL-22 assay is also based on the SMC™ platform and run on the Erenna instrument, the assay was developed internally as a coated plate-based assay. The development and optimization of the BD-2 assay was done on the Meso Scale Discovery on the electrochemiluminescence-based platform, a division of Meso Scale Diagnostics LLC (MSD). For all assays, concentration adjustments were made to values measuring below empirically defined LLOQ or empirically defined ULOQ values. Assay QC verified performance of generated standard curves (average concentration recovery & CV of technical replicates) and control samples (inter-assay plate agreement (CV)).\nSerum levels of psoriasis disease biomarkers BD-2, IL-22, IL-17A, and IL-17F relative to baseline were analyzed in patients who received placebo or the compound of Formula (I) and compared to clinical response. […]"}},
  "data": [
    {"smiles": "CC(=O)NCCCC[C@@H]1NC(=O)[C@H](Cc2c[nH]c3c(C)cccc23)NC(=O)[C@H]([C@@H](C)O)NC(=O)[C@H](CC(N)=O)NC(=O)[C@@H](NC(C)=O)C(C)(C)SSC(C)(C)[C@@H](C(=O)N[C@@H](Cc2ccc(OCCN)cc2)C(=O)N[C@@H](Cc2ccc3ccccc3c2)C(=O)NC2(C(=O)N[C@@H](CCC(=O)O)C(=O)N[C@@H](CC(N)=O)C(=O)N[C@@H](Cc3cccnc3)C(=O)N(C)CC(N)=O)CCOCC2)NC1=O", "note": "[IL-23 receptor antagonist peptide, Ac-[Pen]*-N-T-[W(7-Me)]-[Lys(Ac)]-[Pen]*-Phe[4-(2-aminoethoxy)]-[2-Nal]-[THP]-E-N-[3-Pal]-Sarc-NH2 (*[Pen]-[Pen]* formdisulfidebond)]", "values": [
      {"measurement": "COVID-19, subjects", "setting": "[1]; 25 mg BID", "result": "(19.5%)"},
      {"measurement": "Diarrhea, subjects", "setting": "[1]; 25 mg BID", "result": "(4.9%)"},
      {"measurement": "Discontinued study agent because of adverse events, subjects", "setting": "[1]; 25 mg BID", "result": "(2.3%)"},
      {"measurement": "Gastrointestinal disorders, subjects", "setting": "[1]; 25 mg BID", "result": "(9.8%)"},
      {"measurement": "Headache, subjects", "setting": "[1]; 25 mg BID", "result": "(2.4%)"},
      {"measurement": "Infections and infestations, subjects", "setting": "[1]; 25 mg BID", "result": "(34.1%)"},
      {"measurement": "Nasopharyngitis, subjects", "setting": "[1]; 25 mg BID", "result": "(7.3%)"},
      {"measurement": "Nervous system disorders, subjects", "setting": "[1]; 25 mg BID", "result": "(4.9%)"},
      {"measurement": "Respiratory, thoracic and mediastinal disorders, subjects", "setting": "[1]; 25 mg BID", "result": 0},
      {"measurement": "Subjects with 1 or more Adverse events", "setting": "[1]; 25 mg BID", "result": "(48.8%)"},
      {"measurement": "Upper respiratory tract infection, subjects", "setting": "[1]; 25 mg BID", "result": 0},
      {"measurement": "COVID-19, subjects", "setting": "[1]; 25 mg QD", "result": "(11.6%)"},
      {"measurement": "Diarrhea, subjects", "setting": "[1]; 25 mg QD", "result": "(4.7%)"},
      {"measurement": "Discontinued study agent because of adverse events, subjects", "setting": "[1]; 25 mg QD", "result": "(7.0%)"},
      {"measurement": "Gastrointestinal disorders, subjects", "setting": "[1]; 25 mg QD", "result": "(7.0%)"},
      {"measurement": "Headache, subjects", "setting": "[1]; 25 mg QD", "result": 0},
      {"measurement": "Infections and infestations, subjects", "setting": "[1]; 25 mg QD", "result": "(34.9%)"},
      {"measurement": "Nasopharyngitis, subjects", "setting": "[1]; 25 mg QD", "result": "(2.3%)"},
      {"measurement": "Nervous system disorders, subjects", "setting": "[1]; 25 mg QD", "result": 0},
      {"measurement": "Respiratory, thoracic and mediastinal disorders, subjects", "setting": "[1]; 25 mg QD", "result": "(2.3%)"},
      {"measurement": "Subjects with 1 or more Adverse events", "setting": "[1]; 25 mg QD", "result": "(46.5%)"},
      {"measurement": "Upper respiratory tract infection, subjects", "setting": "[1]; 25 mg QD", "result": "(7.0%)"},
      {"measurement": "COVID-19, subjects", "setting": "[1]; 50 mg QD", "result": "(7.0%)"},
      {"measurement": "Diarrhea, subjects", "setting": "[1]; 50 mg QD", "result": "(9.3%)"},
      {"measurement": "Discontinued study agent because of adverse events, subjects", "setting": "[1]; 50 mg QD", "result": "(2.3%)"},
      {"measurement": "Gastrointestinal disorders, subjects", "setting": "[1]; 50 mg QD", "result": "(14.0%)"},
      {"measurement": "Headache, subjects", "setting": "[1]; 50 mg QD", "result": "(2.3%)"},
      {"measurement": "Infections and infestations, subjects", "setting": "[1]; 50 mg QD", "result": "(39.5%)"},
      {"measurement": "Nasopharyngitis, subjects", "setting": "[1]; 50 mg QD", "result": "(18.6%)"},
      {"measurement": "Nervous system disorders, subjects", "setting": "[1]; 50 mg QD", "result": "(7.0%)"},
      {"measurement": "Respiratory, thoracic and mediastinal disorders, subjects", "setting": "[1]; 50 mg QD", "result": "(2.3%)"},
      {"measurement": "Subjects with 1 or more Adverse events", "setting": "[1]; 50 mg QD", "result": "(60.5%)"},
      {"measurement": "Upper respiratory tract infection, subjects", "setting": "[1]; 50 mg QD", "result": 0},
      {"measurement": "COVID-19, subjects", "setting": "[1]; 100 mg BID", "result": "(9.5%)"},
      {"measurement": "Diarrhea, subjects", "setting": "[1]; 100 mg BID", "result": "(2.4%)"},
      {"measurement": "Discontinued study agent because of adverse events, subjects", "setting": "[1]; 100 mg BID", "result": 0},
      {"measurement": "Gastrointestinal disorders, subjects", "setting": "[1]; 100 mg BID", "result": "(16.7%)"},
      {"measurement": "Headache, subjects", "setting": "[1]; 100 mg BID", "result": "(2.4%)"},
      {"measurement": "Infections and infestations, subjects", "setting": "[1]; 100 mg BID", "result": "(26.2%)"},
      {"measurement": "Nasopharyngitis, subjects", "setting": "[1]; 100 mg BID", "result": "(4.8%)"},
      {"measurement": "Nervous system disorders, subjects", "setting": "[1]; 100 mg BID", "result": "(4.8%)"},
      {"measurement": "Respiratory, thoracic and mediastinal disorders, subjects", "setting": "[1]; 100 mg BID", "result": "(4.8%)"},
      {"measurement": "Subjects with 1 or more Adverse events", "setting": "[1]; 100 mg BID", "result": "(61.9%)"},
      {"measurement": "Upper respiratory tract infection, subjects", "setting": "[1]; 100 mg BID", "result": "(4.8%)"},
      {"measurement": "COVID-19, subjects", "setting": "[1]; 100 mg QD", "result": "(7.0%)"},
      {"measurement": "Diarrhea, subjects", "setting": "[1]; 100 mg QD", "result": "(2.3%)"},
      {"measurement": "Discontinued study agent because of adverse events, subjects", "setting": "[1]; 100 mg QD", "result": 0},
      {"measurement": "Gastrointestinal disorders, subjects", "setting": "[1]; 100 mg QD", "result": "(9.3%)"},
      {"measurement": "Headache, subjects", "setting": "[1]; 100 mg QD", "result": "(7.0%)"},
      {"measurement": "Infections and infestations, subjects", "setting": "[1]; 100 mg QD", "result": "(16.3%)"},
      {"measurement": "Nasopharyngitis, subjects", "setting": "[1]; 100 mg QD", "result": "(2.3%)"},
      {"measurement": "Nervous system disorders, subjects", "setting": "[1]; 100 mg QD", "result": "(7.0%)"},
      {"measurement": "Respiratory, thoracic and mediastinal disorders, subjects", "setting": "[1]; 100 mg QD", "result": "(7.0%)"},
      {"measurement": "Subjects with 1 or more Adverse events", "setting": "[1]; 100 mg QD", "result": "(44.2%)"},
      {"measurement": "Upper respiratory tract infection, subjects", "setting": "[1]; 100 mg QD", "result": 0},
      {"measurement": "Deaths, MACE or malignancies", "setting": "[1]", "result": "no deaths, MACE or malignancies"},
      {"measurement": "COVID-19, subjects", "setting": "[1]; Combined doses", "result": "(10.8%)"},
      {"measurement": "Diarrhea, subjects", "setting": "[1]; Combined doses", "result": "(4.7%)"},
      {"measurement": "Discontinued study agent because of adverse events, subjects", "setting": "[1]; Combined doses", "result": "(2.3%)"},
      {"measurement": "Gastrointestinal disorders, subjects", "setting": "[1]; Combined doses", "result": "(11.3%)"},
      {"measurement": "Headache, subjects", "setting": "[1]; Combined doses", "result": "(2.8%)"},
      {"measurement": "Infections and infestations, subjects", "setting": "[1]; Combined doses", "result": "(30.2%)"},
      {"measurement": "Nasopharyngitis, subjects", "setting": "[1]; Combined doses", "result": "(7.1%)"},
      {"measurement": "Nervous system disorders, subjects", "setting": "[1]; Combined doses", "result": "(4.7%)"},
      {"measurement": "Respiratory, thoracic and mediastinal disorders, subjects", "setting": "[1]; Combined doses", "result": "(3.3%)"},
      {"measurement": "Subjects with 1 or more Adverse events", "setting": "[1]; Combined doses", "result": "(52.4%)"},
      {"measurement": "Upper respiratory tract infection, subjects", "setting": "[1]; Combined doses", "result": "(2.4%)"},
      {"measurement": "Dose dependence of occurrence of AEs", "setting": "[1]; across treatment groups", "result": "no evidence of dose-dependent increase"},
      {"measurement": "Tolerability", "setting": "[1]; all treatment groups", "result": "well-tolerated"},
      {"measurement": "IL-22 serum levels", "setting": "IL-22", "result": "statistically significant reduction"}
    ]}
  ]
}
